Biological target: T1, bovine erythrocyte CA-II (Bos taurus, UniProt P00921)
T1 construct: purified bovine erythrocyte CA-II; from tissue; host or cells: bovine erythrocytes
Test: Carbonic anhydrase II inhibition assay (colorimetric, 4-nitrophenyl acetate substrate)
Assay type: biochemical
Settings: for IC50: N/A = Not active; for % Inhibition: test concentration not given
Experimental: 20 µL of tested compounds were incubated with the enzyme carbonic anhydrase II (EC 4.2.1.1) for 15 min in 96-well flat bottom plate. The rate of product formation was monitored with the addition of 20 µL of 4-NPA as substrate, prepared in ethanol at the final concentration of 0.7 mM at 25 °C for 30 min with regular intervals of 1 min, by using spectrophotometer (xMark^TM Microplate, Bio-Rad, Hercules, CA, USA). HEPES-tris was used as a buffer for the reaction at the final concentration of 20 mM at pH 7.4.

T1 sequence (P00921 2-260): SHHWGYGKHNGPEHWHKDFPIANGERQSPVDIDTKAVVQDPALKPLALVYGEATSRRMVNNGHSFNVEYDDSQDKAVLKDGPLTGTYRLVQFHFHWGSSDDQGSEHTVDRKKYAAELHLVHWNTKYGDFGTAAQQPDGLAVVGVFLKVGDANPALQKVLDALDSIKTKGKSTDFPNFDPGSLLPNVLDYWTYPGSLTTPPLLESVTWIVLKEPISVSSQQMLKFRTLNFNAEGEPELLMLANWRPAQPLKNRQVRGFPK

| Compound | IC50 [µM] | % Inhibition [%] |
| --- | --- | --- |
| CC(C)(C)OC(=O)N[C@@H](Cc1nnc(-c2ccccc2O)o1)c1ccccc1 [Compound 4b, Tert-Butyl (S)-(2-(5-(2-hydroxyphenyl)-1,3,4-oxadiazol-2-yl)-1-phenylethyl) carbamate] | 19.1 ± 0.88 | 93.5 |
| COc1ccc(OC)c(-c2nnc(C[C@H](NC(=O)OC(C)(C)C)c3ccccc3)o2)c1 [Compound 4k, Tert-Butyl (S)-(2-(5-(2,5-dimethoxyphenyl)-1,3,4-oxadiazol-2-yl)-1-phenylethyl) carbamate] | 22.4 ± 1.43 | 87.8 |
| Tert-Butyl(S)-(1-phenyl-2-(5-phenyl-1,3,4-oxadiazol-2-yl)ethyl) carbamate [Compound 4c] | 13.8 ± 0.64 | 95.5 |
| CC(C)(C)OC(=O)N[C@@H](Cc1nnc(-c2ccc(Cl)cc2)o1)c1ccccc1 [Compound 4l, Tert-Butyl (S)-(2-(5-(4-chlorophenyl)-1,3,4-oxadiazol-2-yl)-1-phenylethyl) carbamate] | 53.6 ± 0.96 | 67.6 |
| COc1ccc(-c2nnc(C[C@H](NC(=O)OC(C)(C)C)c3ccccc3)o2)cc1OC [Compound 4j, Tert-Butyl (S)-(2-(5-(3,4-dimethoxyphenyl)-1,3,4-oxadiazol-2-yl)-1-phenylethyl) carbamate] | 26.6 ± 1.47 | 96.7 |
| CC(C)(C)OC(=O)N[C@@H](Cc1nnc(-c2ccccn2)o1)c1ccccc1 [Compound 4a, Tert-Butyl (S)-(1-phenyl-2-(5-(pyridin-2-yl)-1,3,4-oxadiazol-2-yl)ethyl) carbamate] | 12.1 ± 0.86 | 96.2 |
| CC(C)(C)OC(=O)N[C@@H](Cc1nnc(-c2ccc(O)cc2)o1)c1ccccc1 [Compound 4i, Tert-Butyl (S)-(2-(5-(4-hydroxyphenyl)-1,3,4-oxadiazol-2-yl)-1-phenylethyl) carbamate] | 18.1 ± 1.31 | 58.0 |
| Tert-Butyl(S)-(2-(5-(4-methoxyphenyl)-1,3,4-oxadiazol-2-yl)-1-phenylethyl) carbamate [Compound 4d] | – | 29.0 |

Reference: PMC8838037, “Design, Synthesis and Molecular Docking Study of Novel 3-Phenyl-β-Alanine-Based Oxadiazole Analogues as Potent Carbonic Anhydrase II Inhibitors” (Molecules, 2022)
